{"source": "patent US7273889B2", "about": "“NMDA receptor antagonist formulation with reduced neurotoxicity” (Innovative Drug Delivery Systems, Inc., priority 2002, dated 2007)", "origin": "cited, not measured here", "key": {"patients": {"test_system": "patients", "settings": "use as an anesthetic agent"}, "[1]": {"test_system": "spinal cord of the animals", "settings": "multiple dose, intrathecally administered"}, "[2]": {"settings": "at a pH up to 10"}}, "note": "Counter-ions that a name gives are not always drawn."}
{"molecule": "CNC1(c2ccccc2Cl)CCCCC1=O", "note": "(stereo not drawn) [ketamine hydrochloride]", "values": [{"measurement": "occurrence of postoperative confusional states (emergence reactions)", "setting": "patients", "result": "approximately 12% of patients"}]}
{"molecule": "CNC1(c2ccccc2Cl)CCCCC1=O", "note": "(stereo not drawn) [preservative-free ketamine, ketamine]", "values": [{"measurement": "neurotoxic effect", "setting": "[1]", "result": "without neurotoxic effect"}]}
{"molecule": "benzalkonium chloride", "values": [{"measurement": "stability", "setting": "[2]", "result": "stable at room temperature"}]}
